These results are taken from US20030181436A1, “Treatment for AIDS, HIV, and other related diseases and compounds for use therewith” (priority 2001, published 2003).

Format in all cases: cell-based
Series [1] has as its system HIV RoJo (a clinical isolate). Briefly: Chronically infected PBMCs, supernatant reverse transcriptase activity. The settings on record: 7 day treatment. The procedure:
Reverse transcriptase activity was measured in cell-free supernatants. Tritiated thymidine triphosphate (NEN) (TTP) was resuspended in distilled H2O at 5 Ci/mL. Poly rA and oligo dT were prepared as a stock solution which was kept at −20° C. The RT reaction buffer was prepared fresh on a daily basis and consists of 125 μL 1.0 M EGTA, 125 μL dH2O, 110 μL 10% SDS, 50 μL 1.0 M Tris (pH 7.4), 50 μL, 1.0 M DTT, and 40 μL 1.0 M MgCl2. These three solutions were mixed together in a ratio of 2 parts TTP, 1 part poly rA:oligo dT, and 1 part reaction buffer. Ten microliters of this reaction mixture was placed in a round bottom microtiter plate and 15 μL of virus containing supernatant was added and mixed. The plate was incubated at 37° C. in a water bath with a solid support to prevent submersion of the plate and incubated for 60 minutes. Following reaction, the reaction volume was spotted onto pieces of DE81 paper, washed 5 times for 5 minutes each in a 5% sodium phosphate buffer, 2 times for 1 minute each in distilled water, 2 times for 1 minute each in 70% ethanol, and then dried. Opti-Fluor O was added to each sample and incorporated radioactivity was quantitated utilizing a Wallac 1450 Microbetaplus liquid scintillation counter.
In these studies PBMCs are infected with HIV RoJo (a clinical isolate) and a dynamic population of infected PBMCs established over a period of 2 to 3 weeks. This population of infected PBMCs was established and maintained by the addition of fresh PBMCs in a 1:1 ratio every 7 days, thus overcoming the lost of PBMCs to normal cell death processes. Thus a population of cells was established that consisted of uninfected cells, short lived infected cells and long lived infected cells. In experiments where AZT was added to prevent re-infection of the population, we typically saw a 50% reduction in infection following a 7 day treatment. This means that 50% of the virus production from the infected […] population was due re-infection. […] Thus there was a population of infected PBMCs present ([…] of the total) which survived for extended periods of time and thus met the definition of being chronically infected.

Another series deals with HIV. Briefly: PBMC time of addition assay. Particulars: addition after 32 h of infection. The source says: FIGS. 18 and 19 show the results of the time of addition assay with the K and Z compound. In time of addition assays the timed addition of compounds after initial infection allows the identification of specific stages of virus replication. This is seen with the positive control compound AZT. AZT is a reverse transcriptase inhibitor. […] Thus it has an antiviral target that is occurring after completion of reverse transcription. […] In general since this time of addition uses multiple rounds of infection in the PBMCs versus a single round in cell lines systems, lower concentrations of compound will often shift the curve to the left. This is seen in FIG. 18.

The subject of series [2] is HIV-1 attachment to HeLa CD4 LTR B-gal cells. Nature of the series: Inhibition of attachment assay. The settings on record: for IC50: attachment assay. The protocol: (§1) The attachment assay was performed with the HeLa CD4 LTR B-gal cells available from the AIDS Research and Reference Reagent Repository. […] HeLa CD4 LTR B-gal cells express cell surface CD4 and contain an LTR B-galactosidase reporter construct. Upon infection either the Tat protein incorporated into the virion or new Tat produced following virus integration and transcription trans-activate the LTR B-gal reporter, leading to expression of the B-galactosidase enzyme. HeLa CD4 LTR B-gal cells are routinely cultured with the required selection antibiotics and scrended for mycoplasma contamination. Twenty-four h prior to initiation of the assay cells were trypsinized, counted and 1×10^4 cells placed in a 0.2 cm well in media without selection antibiotics. Media was removed and compound media placed on the cells and incubated for 15 to 30 min at 37° C. A known titer of virus was then added to the wells and the incubation continued for 1 h. At the end of the incubation the wells were washed 6 times with media and the culture continued for 48 h. At 48 h the wells were washed one time with PBS and B-galactosidase enzyme expression determined by chemiluminescence per manufacturers instructions (Tropix Gal-screen TM, Tropix, Bedford, Mass.). Compound toxicity was monitored on sister plates using MTS dye reduction. (See Tables 14 through 16 and FIGS. 21 and 22).

The next series has as its system HeLa CD4 LTR B-gal cells. Briefly: Attachment assay, toxicity on sister plates by MTS. Particulars: for TC50: attachment assay. The procedure: as §1, with “reduction.” for “reduction. (See Tables 14 through 16 and FIGS. 21 and 22).”
In another series the test system is HeLa CD4 LTR β-gal cells. Nature of the series: Cytotoxicity for HeLa CD4 LTR β-gal cells. The procedure:
At assay termination the assay plates were stained with the soluble tetrazolium-based dye MTS (CellTiter® Reagent, Promega) to determined cell viability and quantify compound toxicity. […] At termination of the assay 20 μL of MTS reagent was added per well. The wells were incubated for 4 h at 37° C., 5% CO2. Adhesive plate scalers were used in place of the lids, the sealed plate was inverted several times to mix the soluble formazan product and the plate was read spectrophotometrically at 490 nm with a 650 nm reference wavelength on a Molecular Devices Vmax plate reader.
This cell line represents one of 3 standard models for performing time of addition assays.

Converted amounts (≈) assume the structure as drawn. Where two headings read alike, the source gives them in different places.

Regarding `Cc1cn([C@H]2C[C@H](N=[N+]=[N-])[C@@H](CO)O2)c(=O)[nH]c1=O` [AZT, reference compound], the reduction in infection in series [1] is 50%. Further, in the series with HIV, the “effect on virus replication” value is “no significant effect”.

Consider `COc1cc(-c2ccc(/N=N/c3ccc4c(S(=O)(=O)O)cc(S(=O)(=O)O)c(N)c4c3O)c(OC)c2)ccc1/N=N/c1ccc2c(S(=O)(=O)O)cc(S(=O)(=O)O)c(N)c2c1O` [Chicago Sky Blue], for which the “% VC” value in series [2] (CONC 0.032) is listed as 90.6%; in series [2] (CONC 0.1), 74.5%; in series [2] (CONC 0.32) it was 48.2%; in series [2] (CONC 1) it was 10.9%; in series [2] (CONC 3.2), 8.3%; in series [2] (CONC 10), 8.0%. Further, the “RLU (Relative Light Units) MEAN” value in series [2] (CONC 0.032) is recorded as 127754.7 RLU; in series [2] (CONC 0.1), 105105.3 RLU; in series [2] (CONC 0.32) it was 67955.7 RLU; in series [2] (CONC 1), 15363.3 RLU; in series [2] (CONC 3.2), 11753.3 RLU; in series [2] (CONC 10) it was 11266.7 RLU. For the same compound, the IC50 in series [2] (Human immunodeficiency virus 1, HeLa, read-out: IC50) was 0.3 µg/mL (≈ 0.332 µM); in series [2] (listed as CHICAGO SKY BLUE), “IC50 (μG/mL) = 0.30 μg/mL”. Also, the “% CC” value in the series with HeLa CD4 LTR B-gal cells (CONC 0.032) is listed as 93.3%; in the series with HeLa CD4 LTR B-gal cells (CONC 0.1), 80.8%; with HeLa CD4 LTR B-gal cells (CONC 0.32), 84.7%; in the series with HeLa CD4 LTR B-gal cells (CONC 1), 82.6%; in the series with HeLa CD4 LTR B-gal cells (CONC 3.2), 83.3%; with HeLa CD4 LTR B-gal cells (CONC 10), 73.3%. The “TOXICITY VALUES (Cell Titer) MEAN” value with HeLa CD4 LTR B-gal cells (CONC 0.032) came to 1.259 O. D; in the series on HeLa CD4 LTR B-gal cells (CONC 0.1) it was 1.090 O. D; in the series on HeLa CD4 LTR B-gal cells (CONC 0.32), 1.142 O. D; in the series on HeLa CD4 LTR B-gal cells (CONC 1), 1.115 O. D; in the series on HeLa CD4 LTR B-gal cells (CONC 3.2), 1.123 O. D; in the series with HeLa CD4 LTR B-gal cells (CONC 10), 0.989 O. D. Also, the TC50 with HeLa CD4 LTR B-gal cells is above 10 µg/mL; in the series on HeLa CD4 LTR B-gal cells (listed as CHICAGO SKY BLUE), “TC50 (μG/mL) = >.10 μg/mL”.

With `C[S+](C)[O-]` [DMSO], the “% CC” value with HeLa CD4 LTR β-gal cells (dilution 1:50) turned out to be 111.0%; in the series with HeLa CD4 LTR β-gal cells (dilution 1:1600), 103.2%; in the series on HeLa CD4 LTR β-gal cells (dilution 1:5000), 105.9%; with HeLa CD4 LTR β-gal cells (dilution 1:16000), 99.1%; in the series with HeLa CD4 LTR β-gal cells (dilution 1.500), 101.0%; in the series with HeLa CD4 LTR β-gal cells (dilution 11110), 111.0%. For the same compound, the “TOXICITY VALUES (Cell Titer) MEAN” value in the series with HeLa CD4 LTR β-gal cells (dilution 1:50) is reported as 1.167 O. D; with HeLa CD4 LTR β-gal cells (dilution 1:1600), 1.085 O. D; in the series with HeLa CD4 LTR β-gal cells (dilution 1:5000), 1.113 O. D; in the series on HeLa CD4 LTR β-gal cells (dilution 1:16000), 1.042 O. D; in the series with HeLa CD4 LTR β-gal cells (dilution 1.500), 1.062 O. D; in the series on HeLa CD4 LTR β-gal cells (dilution 11110) it was 1.167 O. D.
